In US9290777B2, “Putative cytokinin receptor and methods for use thereof” (NATIONAL UNIVERSITY OF SINGAPORE, priority 2007, dated 2016):

System: ARR5
Assay: qRT-PCR of cytokinin responsive gene after BA pulse, fold change vs untreated wild type
Type: cell-based, Arabidopsis thaliana
Description: For quantitative real-time PCR (qRT-PCR) analysis of cytokinin-inducible gene expression, seeds were germinated on MS medium with 3% (w/v) sucrose and grown for 6 days. Cytokinin treatment was carried out by incubating seedlings in the same MS+sucrose liquid medium (no agar) supplemented with 0, 0.01, 0.1, 1 or 5 μM [solubilized in 0.1% dimethylsulfoxide (DMSO) and diluted with the MS medium] for 5 min, 15 min, 30 min or 1 h. The control seedlings were incubated with DMSO (0.1%, the concentration used to dissolve cytokinins for the treatment) for the corresponding durations and used for expression analysis. Before RNA preparation, WT, OE and AS seedlings were pooled and stored in RNAlater solution (Qiagen, Valencia, Calif.). Total RNA was extracted using the Rneasy Plant Mini Kit (Qiagen). SYBRgreen RT-PCR reagents (Applied Biosystems) were used to synthesize double-stranded cDNA. The number of transcripts present in biological replicates each of WT, OE and AS seedlings, with or without BA and DMSO, was determined from three independent replicates. Fold induction of the transcripts was calculated according to the manufacturer's instructions (ABI Prism 7700 Sequence Detection System, User Bulletin #2).

In the case of `c1ccc(CNc2ncnc3nc[nH]c23)cc1` [benzyladenine], the ARR5 fold change (BA 0.01 μM, 5 min, AS1, ↑ up) is reported as 4.33↑, the ARR5 fold change (BA 0.01 μM, 5 min, AS8, ↑ up) is reported as 6.12↑ and the ARR5 fold change (BA 0.01 μM, 5 min, AS21, ↑ up) is reported as 8.2↑. The ARR5 fold change (BA 0.01 μM, 5 min, OE1, ↓ down) was 4.51↓, the ARR5 fold change (BA 0.01 μM, 5 min, OE12, ↓ down) was 5.87↓ and the ARR5 fold change (BA 0.01 μM, 5 min, OE18, ↓ down) was 7.33↓. For the same compound, the ARR5 fold change (BA 0.01 μM, 5 min, Wild type, ↑ up) was 3.55↑, the ARR5 fold change (BA 0.01 μM, 15 min, AS1, ↑ up) was 4.77↑ and the ARR5 fold change (BA 0.01 μM, 15 min, AS8, ↑ up) was 6.68↑. The ARR5 fold change (BA 0.01 μM, 15 min, AS21, ↑ up) was 8.58↑, the ARR5 fold change (BA 0.01 μM, 15 min, OE1, ↓ down) was 4.33↓ and the ARR5 fold change (BA 0.01 μM, 15 min, OE12, ↓ down) was 5.55↓. The ARR5 fold change (BA 0.01 μM, 15 min, OE18, ↓ down) was 7.03↓, the ARR5 fold change (BA 0.01 μM, 15 min, Wild type, ↑ up) was 3.64↑ and the ARR5 fold change (BA 0.01 μM, 30 min, AS1, ↑ up) was 5.01↑. For the same compound, the ARR5 fold change (BA 0.01 μM, 30 min, AS8, ↑ up) was 6.82↑, the ARR5 fold change (BA 0.01 μM, 30 min, AS21, ↑ up) was 8.79↑ and the ARR5 fold change (BA 0.01 μM, 30 min, OE1, ↓ down) was 4.11↓. For the same compound, the ARR5 fold change (BA 0.01 μM, 30 min, OE12, ↓ down) was 5.21↓, the ARR5 fold change (BA 0.01 μM, 30 min, OE18, ↓ down) was 6.91↓ and the ARR5 fold change (BA 0.01 μM, 30 min, Wild type, ↑ up) was 4.11↑. For the same compound, the ARR5 fold change (BA 0.01 μM, 1 h, AS1, ↑ up) was 5.11↑, the ARR5 fold change (BA 0.01 μM, 1 h, AS8, ↑ up) was 7.16↑ and the ARR5 fold change (BA 0.01 μM, 1 h, AS21, ↑ up) was 9.15↑. The ARR5 fold change (BA 0.01 μM, 1 h, OE1, ↓ down) was 3.91↓, the ARR5 fold change (BA 0.01 μM, 1 h, OE12, ↓ down) was 4.96↓ and the ARR5 fold change (BA 0.01 μM, 1 h, OE18, ↓ down) was 6.63↓. The ARR5 fold change (BA 0.01 μM, 1 h, Wild type, ↑ up) was 4.3↑, the ARR5 fold change (BA 0.1 μM, 5 min, AS1, ↑ up) was 5.34↑ and the ARR5 fold change (BA 0.1 μM, 5 min, AS8, ↑ up) was 7.32↑. The ARR5 fold change (BA 0.1 μM, 5 min, AS21, ↑ up) was 9.31↑, the ARR5 fold change (BA 0.1 μM, 5 min, OE1, ↓ down) was 4.1↓ and the ARR5 fold change (BA 0.1 μM, 5 min, OE12, ↓ down) was 4.71↓. The ARR5 fold change (BA 0.1 μM, 5 min, OE18, ↓ down) was 6.69↓, the ARR5 fold change (BA 0.1 μM, 5 min, Wild type, ↑ up) was 4.66↑ and the ARR5 fold change (BA 0.1 μM, 15 min, AS1, ↑ up) was 5.59↑. For the same compound, the ARR5 fold change (BA 0.1 μM, 15 min, AS8, ↑ up) was 7.49↑, the ARR5 fold change (BA 0.1 μM, 15 min, AS21, ↑ up) was 9.46↑ and the ARR5 fold change (BA 0.1 μM, 15 min, OE1, ↓ down) was 4.04↓. For the same compound, the ARR5 fold change (BA 0.1 μM, 15 min, OE12, ↓ down) was 4.63↓, the ARR5 fold change (BA 0.1 μM, 15 min, OE18, ↓ down) was 6.51↓ and the ARR5 fold change (BA 0.1 μM, 15 min, Wild type, ↑ up) was 4.78↑. The ARR5 fold change (BA 0.1 μM, 30 min, AS1, ↑ up) was 5.89↑, the ARR5 fold change (BA 0.1 μM, 30 min, AS8, ↑ up) was 7.73↑ and the ARR5 fold change (BA 0.1 μM, 30 min, AS21, ↑ up) was 9.68↑. The ARR5 fold change (BA 0.1 μM, 30 min, OE1, ↓ down) was 3.9↓, the ARR5 fold change (BA 0.1 μM, 30 min, OE12, ↓ down) was 4.4↓ and the ARR5 fold change (BA 0.1 μM, 30 min, OE18, ↓ down) was 6.23↓. The ARR5 fold change (BA 0.1 μM, 30 min, Wild type, ↑ up) was 4.95↑, the ARR5 fold change (BA 0.1 μM, 1 h, AS1, ↑ up) was 6.07↑ and the ARR5 fold change (BA 0.1 μM, 1 h, AS8, ↑ up) was 8.04↑. For the same compound, the ARR5 fold change (BA 0.1 μM, 1 h, AS21, ↑ up) was 9.97↑, the ARR5 fold change (BA 0.1 μM, 1 h, OE1, ↓ down) was 3.67↓ and the ARR5 fold change (BA 0.1 μM, 1 h, OE12, ↓ down) was 4.01↓. The ARR5 fold change (BA 0.1 μM, 1 h, OE18, ↓ down) was 6.01↓, the ARR5 fold change (BA 0.1 μM, 1 h, Wild type, ↑ up) was 5.06↑ and the ARR5 fold change (BA 1.0 μM, 5 min, AS1, ↑ up) was 6.62↑. The ARR5 fold change (BA 1.0 μM, 5 min, AS8, ↑ up) was 8.59↑, the ARR5 fold change (BA 1.0 μM, 5 min, AS21, ↑ up) was 9.99↑ and the ARR5 fold change (BA 1.0 μM, 5 min, OE1, ↓ down) was 3.96↓. The ARR5 fold change (BA 1.0 μM, 5 min, OE12, ↓ down) was 3.99↓, the ARR5 fold change (BA 1.0 μM, 5 min, OE18, ↓ down) was 5.36↓ and the ARR5 fold change (BA 1.0 μM, 5 min, Wild type, ↑ up) was 5.21↑. The ARR5 fold change (BA 1.0 μM, 15 min, AS1, ↑ up) was 6.88↑, the ARR5 fold change (BA 1.0 μM, 15 min, AS8, ↑ up) was 8.93↑ and the ARR5 fold change (BA 1.0 μM, 15 min, AS21, ↑ up) was 10.12↑. The ARR5 fold change (BA 1.0 μM, 15 min, OE1, ↓ down) was 3.71↓, the ARR5 fold change (BA 1.0 μM, 15 min, OE12, ↓ down) was 3.46↓ and the ARR5 fold change (BA 1.0 μM, 15 min, OE18, ↓ down) was 5.21↓. The ARR5 fold change (BA 1.0 μM, 15 min, Wild type, ↑ up) was 5.46↑, the ARR5 fold change (BA 1.0 μM, 30 min, AS1, ↑ up) was 6.93↑ and the ARR5 fold change (BA 1.0 μM, 30 min, AS8, ↑ up) was 9.09↑. The ARR5 fold change (BA 1.0 μM, 30 min, AS21, ↑ up) was 10.35↑, the ARR5 fold change (BA 1.0 μM, 30 min, OE1, ↓ down) was 3.49↓ and the ARR5 fold change (BA 1.0 μM, 30 min, OE12, ↓ down) was 3.77↓. The ARR5 fold change (BA 1.0 μM, 30 min, OE18, ↓ down) was 5.01↓, the ARR5 fold change (BA 1.0 μM, 30 min, Wild type, ↑ up) was 5.79↑ and the ARR5 fold change (BA 1.0 μM, 1 h, AS1, ↑ up) was 7.31↑. For the same compound, the ARR5 fold change (BA 1.0 μM, 1 h, AS8, ↑ up) was 9.17↑, the ARR5 fold change (BA 1.0 μM, 1 h, AS21, ↑ up) was 10.76↑ and the ARR5 fold change (BA 1.0 μM, 1 h, OE1, ↓ down) was 3.21↓. The ARR5 fold change (BA 1.0 μM, 1 h, OE12, ↓ down) was 3.52↓, the ARR5 fold change (BA 1.0 μM, 1 h, OE18, ↓ down) was 4.72↓ and the ARR5 fold change (BA 1.0 μM, 1 h, Wild type, ↑ up) was 6.07↑. The ARR5 fold change (BA 5.0 μM, 5 min, AS1, ↑ up) was 7.01↑, the ARR5 fold change (BA 5.0 μM, 5 min, AS8, ↑ up) was 9.56↑ and the ARR5 fold change (BA 5.0 μM, 5 min, AS21, ↑ up) was 10.43↑. The ARR5 fold change (BA 5.0 μM, 5 min, OE1, ↓ down) was 3.19↓, the ARR5 fold change (BA 5.0 μM, 5 min, OE12, ↓ down) was 3.59↓ and the ARR5 fold change (BA 5.0 μM, 5 min, OE18, ↓ down) was 4.25↓. For the same compound, the ARR5 fold change (BA 5.0 μM, 5 min, Wild type, ↑ up) was 6.72↑, the ARR5 fold change (BA 5.0 μM, 15 min, AS1, ↑ up) was 7.31↑ and the ARR5 fold change (BA 5.0 μM, 15 min, Wild type, ↑ up) was 6.99↑. For the same compound, the ARR5 fold change (BA 5.0 μM, 1 h, AS1, ↑ up) was 7.86↑, the ARR5 fold change (BA 5.0 μM, 1 h, AS8, ↑ up) was 10.05↑ and the ARR5 fold change (BA 5.0 μM, 1 h, AS21, ↑ up) was 10.93↑. For the same compound, the ARR5 fold change (BA 5.0 μM, 1 h, OE1, ↓ down) was 2.54↓, the ARR5 fold change (BA 5.0 μM, 1 h, OE12, ↓ down) was 2.78↓ and the ARR5 fold change (BA 5.0 μM, 1 h, OE18, ↓ down) was 3.89↓. For the same compound, the ARR5 fold change (BA 5.0 μM, 1 h, Wild type, ↑ up) was 7.24↑.
